Assay results taken from patent publication US9908854B2, “Process for synthesizing ergothioneine and related compounds” (University of Cape Town, priority 2014, dated 2018).
Several values for one entry are separate records, joined by “and”; a condition that tells them apart may be missing. Equal entries are not always repeated. Entries after “also recorded” stand apart in the source; their conditions may differ.

Assays:
[1] = Non enzymatic cleavage of C-S bond catalysed by PLP (LC/MS); conditions: 50 mM substrate plus 50 mM PLP, 20 mM Tris HCl pH=7.4, 37° C., 24 h
Experimental: FIG. 2 Non enzymatic production of ESH catalysed by PLP. TIC extracted for ESH and PLP using S-(β-amino-β-carboxyethyl)ergothioneine sulfide (15), S-(β-amino-β-carboxyethyl)ergothioneine sulfoxide (II) and S-(β-amino-β-carboxyethyl)ergothioneine sulfone (III).
FIG. 3 Non enzymatic production of ESH graph contain; 100 μl reactions containing 20 mM Tris HCl pH=7.4, 20 mM NaCl, 50 mM of either (1) sulfide (15) plus PLP, (2) sulfoxide (II) plus PLP, (3) sulfone (III) plus PLP respectively. Reaction time: 24 h.
Three sets of 100 μl reactions (1-3) containing 20 mM Tris HCl pH=7.4, and 50 mM of either (1) S-(β-amino-β-carboxyethyl)ergothioneine sulfide (15) and PLP (2) S-(β-amino-β-carboxyethyl)ergothioneine sulfoxide (II) and PLP or (3) S-(β-amino-βcarboxyethyl)ergothioneine sulfone (III) and PLP. The non-enzymatic reactions were incubated for 1 day at 37° C., followed by lyophilisation and subsequent reconstitution in LC buffer before analysis by LC/MS (FIGS. 2 and 3).

[2] = test system: crude M. smegmatis enzymes (ESH pathway, EgtE); assay: Biotransformation of substrates to ergothioneine using crude M. smegmatis enzymes preparation (LC/MS); assay type: biochemical, Mycobacterium smegmatis; conditions: for concentration of ESH produced: 50 mM substrate, crude M. smegmatis cell free extract, 37° C., pH=7.4, 1 day, LCMS, control (endogenous ESH) 5.70 ng/ml
Experimental: FIG. 1 In vitro reconstitution of ESH; 100 μl reactions containing 20 mM Tris HCl pH=7.4, 20 mM NaCl, 0.2 Mm FeSO4.7H2O, 0.5 mM mercaptoethanol, 83 μl of crude M. smeg enzymes and 50 mM of either (a) S-(β-amino-β-carboxyethyl)ergothioneine sulfide (15); (b) S-(β-amino-β-carboxyethyl)ergothioneine sulfoxide (II) and (c) control. The crude enzyme reactions were incubated for 1 day at 37° C. followed by analysis by LC/MS.
The enzymatic and non-enzymatic PLP mediated synthesis of ESH from the synthetic sulfoxide (II) was compared. To this end, crude M. smegmatis cell free extracts were isolated from cultures grown and harvested at the late exponential phase, characterised by high enzymatic activity.^10
The crude enzymatic transformation of the ESH biosynthetic pathway precursors, including sulfide and sulfoxide variants were evaluated by the concomitant production of ESH in excess of basal levels as determined by LCMS. ESH precursor metabolites (β-amino-β-carboxyethyl)ergothioneine sulfide (15) and (β-amino-β-carboxyethyl)ergothioneine sulfoxide (II) were incubated with the crude cell free extract at 37° C., pH=7.4 for 1 day, and analyzed by LCMS.
The control reaction containing only the crude M. smegmatis cell free extract was also treated under the same conditions as the metabolites. The concentration of ESH thus obtained was 5.70 (±0.30) ng/ml, which was equated to that of endogenous ESH. This concentration was above the limit of detection (0.78 ng/ml), thus any increase in the concentration of ESH in the experiment above 1 ng/ml is considered significant enough to be ascribed to basal levels or biotransformation of the respective substrates by the crude endogenous enzymes of the ESH pathway. […]

[3] = test system: crude cell free extracts of Neurospora Crassa; conditions: synthetic sulfoxide of the 1974 prior synthesis; cited from earlier work

SMILES | formation of ESH (non-enzymatic, PLP) [1] | stability to Egt E enzyme mediated C-S cleavage [2] | concentration of ESH produced [2] [ng/mL] | cleavage to ESH by crude cell free extracts [3]
C[N+](C)(C)[C@@H](Cc1c[nH]c(S(=O)(=O)C[C@H](N)C(=O)O)n1)C(=O)O [III] | did not produce ESH at all | stable |  | 
C[N+](C)(C)[C@@H](Cc1c[nH]c([S+]([O-])C[C@H](N)C(=O)O)n1)C(=O)O (stereo partly shown) [II] | no ESH at all; also recorded: did not produce ESH at all |  | 22.6 | extensively cleaved to ESH
C[N+](C)(C)[C@@H](Cc1c[nH]c(SC[C@H](N)C(=O)O)n1)C(=O)O [compound 15, S-(β-amino-β-carboxyethyl)ergothioneine sulfide] | 96.3 ng/mL and 96.34 ng/mL |  | 19.2 | 
